Data on 14 compounds can be found in ChEMBL document CHEMBL5518164, “Membrane-permeable tenofovir-di- and monophosphate analogues” (Eur J Med Chem, 2024).

Data set [1] relates to Human immunodeficiency virus 2. Kind of data set: Antiviral activity against HIV-2 ROD infected in wild type human CEM/0 cells assessed as inhibition of virus-induced giant cell formation incubated for 4 to 5 days by light microscopy. It counts as functional, organism-based. The conditions noted are these: Human immunodeficiency virus 2, ROD, CCRF-CEM.
Data set [2] can be described thus: Half life of the compound in human CEM/0 cell extracts by RP18-HPLC analysis. The data set is classed as ADME, CCRF-CEM.
Data set [3] in a line: Cytotoxicity against human CEM cells assessed as inhibition of cell proliferation. The data set is classed as toxicity, cell-based, CCRF-CEM.
The subject of data set [4] is Human immunodeficiency virus 1. Description: Antiviral activity against HIV-1 HE infected in wild type human CEM/0 cells assessed as inhibition of virus-induced giant cell formation incubated for 4 to 5 days by light microscopy. It counts as functional, organism-based. The conditions noted are these: Human immunodeficiency virus 1, HE, CCRF-CEM.
The nature of data set [5]: Lipophilicity of the compound assessed as retention time by RP-HPLC analysis. The data set is classed as physicochemical.
Data set [6] relates to Human immunodeficiency virus 2. Kind of data set: Antiviral activity against HIV-2 ROD infected in thymidine kinase deficient human CEM cells assessed as inhibition of virus-induced giant cell formation incubated for 4 to 5 days by light microscopy. The conditions noted are these: Human immunodeficiency virus 2, ROD, CCRF-CEM. The data set is classed as functional, organism-based.

Data set [7] in a line: Selectivity index, ratio of CC50 for cytotoxicity against human CEM cells to EC50 for antiviral activity against HIV-2 ROD infected in thymidine kinase deficient human CEM cells. The data set is classed as toxicity, cell-based. The conditions noted are these: read-out: Ratio CC50/EC50.
Data set [8] in a line: Prodrug conversion of the compound in phosphate buffer saline assessed as (R)-9-(2-(phosphonomethoxy)propyl)adenine formation by measuring half life at pH 7.3 by RP18-HPLC analysis. The data set is classed as ADME.
Data set [9] is described as follows: Half life of the compound in phosphate buffer saline at pH 7.3 by RP18-HPLC analysis. It counts as ADME.
A short description of data set [10]: Half life of the compound in citrate-containing human plasma by HPLC analysis. The data set is classed as ADME, cell-free.
A short description of data set [11]: Half life of the compound in heparin-stabilized human plasma by HPLC analysis. It counts as ADME, cell-free.
A short description of data set [12]: Prodrug conversion of the compound in phosphate buffer saline assessed as (R)-9-(2-(phosphonomethoxy)propyl)adenine formation by measuring half life in presence of pig liver esterase at pH 7.3 by RP18-HPLC analysis. The data set is classed as ADME, Sus scrofa.
Data set [13] has as its system Human immunodeficiency virus. Description: Substrate activity at HIV reverse transcriptase assessed as n+1 band formation incubated for 30 mins in presence of primer/template mixture and dNTPs by primer extension assay based fluorescence analysis.
Data set [14] deals with Human immunodeficiency virus. Kind of data set: Substrate activity at HIV reverse transcriptase assessed as elongation of primer at 250 uM incubated for 30 mins in presence of primer/template mixture by primer extension assay based fluorescence analysis.
The test system of data set [15] is Human immunodeficiency virus. Kind of data set: Substrate activity at HIV reverse transcriptase assessed as elongation of primer at 250 uM incubated for 30 mins in presence of primer/template mixture and dNTPs by primer extension assay based fluorescence analysis.
For data set [16], the target named is T1, DNA polymerase subunit gamma-1 (Homo sapiens) (UniProt P54098).
T1 sequence (whole entry): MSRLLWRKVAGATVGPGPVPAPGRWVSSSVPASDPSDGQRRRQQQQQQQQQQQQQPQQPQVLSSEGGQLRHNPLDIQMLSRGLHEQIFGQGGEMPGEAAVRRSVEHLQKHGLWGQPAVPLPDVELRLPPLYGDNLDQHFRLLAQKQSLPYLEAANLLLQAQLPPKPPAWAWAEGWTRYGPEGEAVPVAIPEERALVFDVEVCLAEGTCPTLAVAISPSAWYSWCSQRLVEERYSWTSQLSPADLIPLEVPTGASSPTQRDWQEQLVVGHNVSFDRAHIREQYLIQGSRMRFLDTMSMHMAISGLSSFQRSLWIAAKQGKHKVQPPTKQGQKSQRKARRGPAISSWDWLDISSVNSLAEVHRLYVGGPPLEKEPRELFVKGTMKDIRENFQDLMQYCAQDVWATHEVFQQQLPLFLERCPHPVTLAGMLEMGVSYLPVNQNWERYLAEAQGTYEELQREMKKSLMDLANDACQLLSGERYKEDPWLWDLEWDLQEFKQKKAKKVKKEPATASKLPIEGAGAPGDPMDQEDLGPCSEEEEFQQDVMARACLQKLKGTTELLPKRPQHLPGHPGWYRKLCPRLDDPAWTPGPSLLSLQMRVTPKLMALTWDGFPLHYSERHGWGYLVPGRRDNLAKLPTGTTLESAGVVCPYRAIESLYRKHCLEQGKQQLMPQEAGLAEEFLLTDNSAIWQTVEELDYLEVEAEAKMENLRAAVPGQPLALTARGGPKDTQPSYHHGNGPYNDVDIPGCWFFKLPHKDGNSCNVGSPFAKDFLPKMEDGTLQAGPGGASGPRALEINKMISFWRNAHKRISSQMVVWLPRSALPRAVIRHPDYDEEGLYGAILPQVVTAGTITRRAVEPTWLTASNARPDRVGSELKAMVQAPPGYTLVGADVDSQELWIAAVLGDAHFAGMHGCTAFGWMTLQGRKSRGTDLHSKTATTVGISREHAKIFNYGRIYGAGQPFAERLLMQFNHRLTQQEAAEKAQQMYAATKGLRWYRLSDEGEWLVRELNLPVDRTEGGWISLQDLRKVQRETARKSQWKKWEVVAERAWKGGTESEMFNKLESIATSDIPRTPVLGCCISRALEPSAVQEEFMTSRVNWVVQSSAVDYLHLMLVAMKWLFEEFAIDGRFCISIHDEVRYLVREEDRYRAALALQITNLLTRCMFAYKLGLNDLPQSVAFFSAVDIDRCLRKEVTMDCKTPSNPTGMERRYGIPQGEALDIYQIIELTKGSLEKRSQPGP
Description: Substrate activity at human DNA polymerase gamma assessed as elongation of primer at 250 uM incubated for 120 mins in presence of primer/template mixture by primer extension assay based fluorescence analysis.

Data set [17] is described as follows: Half life of the compound in phosphate buffer saline in presence of pig liver esterase at pH 7.3 by RP18-HPLC analysis. The data set is classed as ADME, Sus scrofa.

Active and inactive are the calls of the source. The rule behind the calls is not given here.

As to `CCCCCCCCCCCCCCCCCCOP(=O)(OCc1ccc(OC(=O)CCCCCC)cc1)OP(=O)(O)OP(=O)(O)CO[C@H](C)Cn1cnc2c(N)ncnc21` (some centres not stated), the EC50 in [1] was 10.3 µM; in data set [4], 6.96 µM; in data set [6], 0.39 µM. In data set [2], this compound had a half-life of 1.9 h. The CC50 in data set [3] is more than 100 µM. The Retention_time in [5] came to 18.1 min. Also, the selectivity ratio in [7] is more than 256. The t1/2 in data set [8] stood at 111 h.

For the compound `CCCCOP(=O)(OCCCC)OP(=O)(O)OP(=O)(O)CO[C@H](C)Cn1cnc2c(N)ncnc21`, the EC50 in data set [1] amounted to 1.22 µM; in data set [4] it was 4.27 µM; in data set [6], 2.54 µM. The same compound registered a half-life in data set [9] of more than 1000 h. Moreover, the CC50 in data set [3] is more than 100 µM. Besides, the Retention_time in [5] came out at 9.7 min. The selectivity ratio in data set [7] is more than 39.

With `CC(C)OC(=O)OCOP(=O)(CO[C@H](C)Cn1cnc2c(N)ncnc21)OCOC(=O)OC(C)C.O=C(O)/C=C/C(=O)O` [TENOFOVIR DISOPROXIL FUMARATE], the EC50 in data set [1] was found to be 0.003 µM; in [4], 0.013 µM; in data set [6], 0.003 µM. Also, the figures for the half-life in [9], in [10] and in data set [11] were 27.8 h, 0.167 h and 0.167 h, respectively. In addition, in data set [3], the 50% cytotoxic concentration (CC50) was more than 5 µM. Further, the Retention_time in data set [5] was 10.1 min. Besides, the selectivity ratio in data set [7] was more than 1430.

On to `CCCCCCCCCCCCCCCCCCOP(=O)(OCc1ccc(OC(=O)CCCCCCCC)cc1)OP(=O)(O)OP(=O)(O)CO[C@H](C)Cn1cnc2c(N)ncnc21` (some centres not stated), for which the values for the EC50 in [1], in data set [4] and in data set [6] were 0.77 µM, 0.45 µM and 0.31 µM, respectively. Further, the half-life in [2] is 3.5 h. For the same compound, the CC50 in [3] is more than 100 µM. For the same compound, the Retention_time in [5] amounted to 19.1 min. The t1/2 in data set [12] is 2.15 h; in [8] it was 24 h. The selectivity ratio in [7] is more than 322.

Turning to `CCCCCCCCCCCOP(=O)(OCc1ccc(OC(=O)CCCCCCCC)cc1)OP(=O)(O)OP(=O)(O)CO[C@H](C)Cn1cnc2c(N)ncnc21` (some centres not stated), the results for the concentration for a half-maximal effect (EC50) in data set [1], in data set [4] and in data set [6] were 0.62 µM, 1.23 µM and 0.54 µM, respectively. For the same compound, the CC50 in data set [3] is more than 100 µM. For the same compound, the selectivity ratio in data set [7] is more than 185.

Take `Nc1ncnc2c1ncn2[C@H]1C[C@H](O)[C@@H](COP(=O)(O)OP(=O)(O)OP(=O)(O)O)O1`: in data set [13], the outcome was Active.

With `CCCCCCCCCCCC(=O)Oc1ccc(COOP(=O)(O)OP(=O)(O)OP(=O)(O)CO[C@H](C)Cn2cnc3c(N)ncnc32)cc1`, the EC50 came out at 0.23 µM in [1], 0.46 µM in data set [4] and 0.3 µM in [6]. The CC50 in data set [3] was more than 100 µM. Further, the selectivity ratio in [7] was more than 333.

For `C[C@H](Cn1cnc2c(N)ncnc21)OCP(=O)(O)OP(=O)(O)O`, the outcome in data set [14] and in [15] was Active. In addition, the result in [16] was inactive.

On to `C[C@H](Cn1cnc2c(N)ncnc21)OCP(=O)(O)O` [TENOFOVIR ANHYDROUS], for which the concentration giving a half-maximal response (EC50) came out at 1.76 µM in [1], 2.08 µM in data set [4] and 0.88 µM in data set [6]. The compound also showed a half-life in data set [9] of more than 1000 h. The result in [14] and in data set [16] was inactive. Moreover, the outcome in data set [15] was Active. Further, the cytotoxic concentration (CC50) in data set [3] is more than 100 µM. Moreover, in data set [5], the Retention_time stood at 6.6 min. Besides, the selectivity ratio in data set [7] was more than 113.

In the case of `CC(C)OC(=O)[C@H](C)N[P@](=O)(CO[C@H](C)Cn1cnc2c(N)ncnc21)Oc1ccccc1.CC(C)OC(=O)[C@H](C)N[P@](=O)(CO[C@H](C)Cn1cnc2c(N)ncnc21)Oc1ccccc1.O=C(O)/C=C/C(=O)O` [TENOFOVIR ALAFENAMIDE FUMARATE], the half-life in [10] and in [11] was 1.5 h each time.

Regarding `CCCCCCCCCCCCCCCCCCOP(=O)(OCc1ccc(OC(=O)CC)cc1)OP(=O)(O)OP(=O)(O)CO[C@H](C)Cn1cnc2c(N)ncnc21` (some centres not stated), the EC50 in data set [1] stood at 0.12 µM; in data set [4] it was 0.39 µM; in data set [6], 0.067 µM. Moreover, the half-life in [2] is 2.6 h. The cytotoxic concentration (CC50) in [3] was found to be 51.1 µM. Besides, the Retention_time in [5] is 16.8 min. The selectivity ratio in [7] was 762. Moreover, the t1/2 in data set [8] was determined as 72 h.

With `CCCCCCCCCCCCCCCCCCP(=O)(OCCCCCCCC)OP(=O)(O)CO[C@H](C)Cn1cnc2c(N)ncnc21` (some centres not stated), the EC50 in data set [1] turned out to be 0.032 µM; in [4], 0.073 µM; in [6], 0.022 µM. Further, the half-life in [9] is 26.5 h; in data set [2] it was more than 8 h. Also, the CC50 in data set [3] was 45.2 µM. The Retention_time in data set [5] is reported as 20.1 min. The selectivity ratio in [7] worked out at 2050.

On to `CCCCCCCCCCCCOP(=O)(OCCCCCCCCCCCC)OP(=O)(O)OP(=O)(O)CO[C@H](C)Cn1cnc2c(N)ncnc21`, for which the EC50 was found to be 0.035 µM in data set [1], 0.061 µM in data set [4] and 0.065 µM in [6]. The half-life was 220 h in data set [9], more than 20 h in [2] and more than 100 h in data set [17]. In addition, in data set [3], the CC50 was 44.7 µM. The Retention_time in data set [5] is 15.6 min. Moreover, the selectivity ratio in data set [7] is 688.

Turning to `CCCCCCCCCCCCCCCCCCOP(=O)(OCCCCCCCC)OP(=O)(O)OP(=O)(O)CO[C@H](C)Cn1cnc2c(N)ncnc21` (some centres not stated), the EC50 in [1] was 0.05 µM; in data set [4] it was 0.16 µM; in data set [6] it was 0.1 µM. The half-life in [9] is 207 h; in [2], more than 8 h. In addition, the CC50 in [3] is 44.7 µM. The Retention_time in data set [5] came to 16.6 min. In addition, the selectivity ratio in data set [7] came out at 447.
